Experimental findings from patent publication US20080318977A1, “Condensed Pyridines as Kinase Inhibitors” (Palau Pharma, S.A., priority 2004, published 2008) are described below.

By inhibition is commonly meant how much of the control response was suppressed. The low end stands for little suppression, the high end for strong suppression.

The target in this test is T1, p38α (Homo sapiens, UniProt Q16539).
T1 construct: GST-tagged fusion protein corresponding to full-length human p38α; purchased Upstate 14-251; host or cells: E. coli
T1 sequence (Q16539 whole entry, the tested form may be a part): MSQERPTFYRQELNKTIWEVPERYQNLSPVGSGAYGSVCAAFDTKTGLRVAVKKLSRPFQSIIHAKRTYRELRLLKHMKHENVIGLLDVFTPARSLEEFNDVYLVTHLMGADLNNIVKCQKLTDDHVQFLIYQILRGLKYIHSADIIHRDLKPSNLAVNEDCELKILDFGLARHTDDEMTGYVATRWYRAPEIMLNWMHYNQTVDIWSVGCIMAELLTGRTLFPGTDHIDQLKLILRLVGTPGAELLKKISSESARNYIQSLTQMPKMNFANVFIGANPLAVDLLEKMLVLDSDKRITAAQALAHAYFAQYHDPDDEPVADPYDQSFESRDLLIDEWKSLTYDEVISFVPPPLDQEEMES
The test can be described thus: Inhibition of p38α enzyme activity (IMAP fluorescence polarisation kinase assay). It counts as biochemical. The settings on record: at 1 μM compound; ATP 20 μM; 2 h at RT. As for the experimental part: Inhibition of p38α Enzyme Activity:
Compound stocks in 100% DMSO are first diluted in DMSO to a concentration of 1×10^−3 up to 3.2×10^−8 M and then further diluted in kinase assay buffer (10 mM Tris-HCl, pH 7.2, 10 mM MgCl2, 0.01% tween 20, 0.05% NaN3, 1 mM dithiothreitol) to a concentration range of 4×10^−5 up to 1.3×10^−9 M. Of each compound solution 5 μL is transferred into a 384-wells black Optiplate (Packard, 6007279), followed by the addition of 5 μL of ATP (Boehringer, 519987), 5 μL of Fluorescein-labeled EGFR (Epidermal Growth Factor Receptor) peptide substrate and 5 μL of active p38 cc kinase (GST-tagged fusion protein corresponding to full-length human p38α; expressed in E. coli by Upstate, 14-251), all diluted in kinase assay buffer (see final concentrations in Table 1). The mixture is incubated for 2 h at room temperature (RT). The reaction is stopped by the addition of 60 μL of IMAP binding reagent, which has been diluted 400-fold in IMAP binding buffer (stock concentration 5 times diluted in Milli Q). After incubation for 30 min at RT, FP is measured on an Analyst™ multimode fluorescence plate reader (Molecular Devices) at excitation wavelength of 485 nm and emission wavelength of 530 nm (1 sec/well).
Data handling is performed as follows: percentage effects are calculated based on no-p38-enzyme-addition as the maximum inhibitory effect and with p38 enzyme addition as the minimum inhibitory effect. In each experiment, individual compound concentrations are tested in duplicate and percentage effect is calculated for each concentration.
For orientation: In fluorescence polarisation assays a small probe gives low polarisation when free and higher when bound to something large.
The molecule `Cn1c(CO)cc2nc(-c3ccc(F)cc3)c(-c3ccncc3)c(-c3ccc(F)cc3)c21` [Example 6, [5,7-Bis(4-fluorophenyl)-1-methyl-6-(4-pyridyl)pyrrolo[3,2-b]pyridin-2-yl]methanol] yielded an inhibition at 1 µM above 50%. Then `Cn1c(CNCC2CC2)cc2nc(-c3ccc(F)cc3)c(-c3ccncc3)c(-c3ccc(F)cc3)c21` [Example 33, [5,7-Bis-(4-fluoro-phenyl)-1-methyl-6-pyridin-4-yl-1H-pyrrolo[3,2-b]pyridin-2-ylmethyl]-cyclopropylmethyl-amine], with above 50%; and `O=C(NCCO)c1n[nH]c2c(-c3ccc(F)cc3)c(-c3ccncc3)c(-c3ccc(F)cc3)nc12` [Example 54, 5,7-Bis-(4-fluoro-phenyl)-6-pyridin-4-yl-1H-pyrazolo[4,3-b]pyridine-3-carboxylic acid (2-hydroxy-ethyl)-amide], with above 50%; and `Cn1c(C(=O)NCCN2CCCCC2)cc2nc(-c3ccc(F)cc3)c(-c3ccncc3)c(-c3ccc(F)cc3)c21` [Example 31, 5,7-Bis-(4-fluoro-phenyl)-1-methyl-6-pyridin-4-yl-1H-pyrrolo[3,2-b]pyridine-2-carboxylic acid (2-piperidin-1-yl-ethyl)-amide], with above 50%. Next, `COCCCNc1nccc(-c2cc3c(C)noc3nc2-c2ccc(F)cc2)n1` [Example 41, {4-[6-(4-Fluoro-phenyl)-3-methyl-isoxazolo[5,4-b]pyridin-5-yl]-pyrimidin-2-yl}-(3-methoxy-propyl)-amine]: above 50%; `Cc1nc2cc(-c3ccnc(NCC4CC4)n3)c(-c3ccc(F)cc3)nc2s1` [Example 52, Cyclopropylmethyl-{4-[5-(4-fluoro-phenyl)-2-methyl-thiazolo[5,4-b]pyridin-6-yl]-pyrimidin-2-yl}-amine]: above 50%; `CCOC(=O)c1nc2nc(-c3ccc(F)cc3)c(-c3ccncc3)c(-c3ccc(F)cc3)c2n1C` [Example 5, Ethyl 5,7-bis(4-fluorophenyl)-1-methyl-6-(4-pyridyl)imidazo[4,5-b]pyridine-2-carboxylate]: above 50%. Then `Cn1c(C(=O)NCCN2CCOCC2)cc2nc(-c3ccc(F)cc3)c(-c3ccncc3)c(-c3ccc(F)cc3)c21` [Example 30, 5,7-Bis-(4-fluoro-phenyl)-1-methyl-6-pyridin-4-yl-1H-pyrrolo[3,2-b]pyridine-2-carboxylic acid (2-morpholin-4-yl-ethyl)-amide], with above 50%; and `COCCNC(=O)c1cc2nc(-c3ccc(F)cc3)c(-c3ccncc3)c(-c3ccc(F)cc3)c2n1C` [Example 28, 5,7-Bis-(4-fluoro-phenyl)-1-methyl-6-pyridin-4-yl-1H-pyrrolo[3,2-b]pyridine-2-carboxylic acid (2-methoxy-ethyl)-amide], with above 50%. `Cn1c(CO)nc2nc(-c3ccc(F)cc3)c(-c3ccncc3)c(-c3ccc(F)cc3)c21` [Example 7, [5,7-Bis(4-fluorophenyl)-1-methyl-6-(4-pyridyl)imidazo[4,5-b]pyridin-2-yl]methanol] registered an inhibition at 1 µM above 50%. Then `Fc1ccc(-c2nc3cn[nH]c3c(-c3ccc(F)cc3)c2-c2ccncc2)cc1` [Example 53, 5,7-Bis-(4-fluoro-phenyl)-6-pyridin-4-yl-1H-pyrazolo[4,3-b]pyridine], with above 50%. Then `O=C(NCCN1CCOCC1)c1cc2c(-c3ccc(F)cc3)c(-c3ccncc3)c(-c3ccc(F)cc3)nc2o1` [Example 25, 4,6-Bis-(4-fluoro-phenyl)-5-pyridin-4-yl-furo[2,3-b]pyridine-2-carboxylic acid (2-morpholin-4-yl-ethyl)-amide], with above 50%.

For `Cn1c(C(C)(C)O)nc2nc(-c3ccc(F)cc3)c(-c3ccncc3)c(-c3ccc(F)cc3)c21` [Example 18, 2-[5,7-Bis(4-fluorophenyl)-1-methyl-6-(4-pyridyl)imidazo[4,5-b]pyridin-2-yl]propan-2-ol], the inhibition at 1 µM is above 50%. Next, `COCCCNc1nccc(-c2cc3c(C)nsc3nc2-c2ccc(F)cc2)n1` [Example 44, {4-[6-(4-Fluoro-phenyl)-3-methyl-isothiazolo[5,4-b]pyridin-5-yl]-pyrimidin-2-yl}-(3-methoxy-propyl)-amine]: above 50%; `O=C(NCCN1CCCCC1)c1cc2c(-c3ccc(F)cc3)c(-c3ccncc3)c(-c3ccc(F)cc3)nc2o1` [Example 26, 4,6-Bis-(4-fluoro-phenyl)-5-pyridin-4-yl-furo[2,3-b]pyridine-2-carboxylic acid (2-piperidin-1-yl-ethyl)-amide]: above 50%. Then `Cn1c(C(=O)NCCO)cc2nc(-c3ccc(F)cc3)c(-c3ccncc3)c(-c3ccc(F)cc3)c21` [Example 13, 5,7-Bis(4-fluorophenyl)-N-(2-hydroxyethyl)-1-methyl-6-(4-pyridyl)pyrrolo[3,2-b]pyridine-2-carboxamide], with above 50%. Then `OCc1cc2c(-c3ccc(F)cc3)c(-c3ccncc3)c(-c3ccc(F)cc3)nc2o1` [Example 22, [4,6-Bis(4-fluorophenyl)-5-(4-pyridyl)furo[2,3-b]pyridin-2-yl]methanol], with above 50%; and `Cc1noc2nc(-c3ccc(F)cc3)c(-c3ccnc(NCC4CC4)n3)cc12` [Example 40, Cyclopropylmethyl-{4-[6-(4-fluoro-phenyl)-3-methyl-isoxazolo[5,4-b]pyridin-5-yl]-pyrimidin-2-yl}-amine], with above 50%. `CCCNC(=O)c1cc2nc(-c3ccc(F)cc3)c(-c3ccncc3)c(-c3ccc(F)cc3)c2n1C` [Example 29, 5,7-Bis-(4-fluoro-phenyl)-1-methyl-6-pyridin-4-yl-1H-pyrrolo[3,2-b]pyridine-2-carboxylic acid propylamide] came in with an inhibition at 1 µM above 50%. Turning to `Cn1c(C(C)(C)O)cc2nc(-c3ccc(F)cc3)c(-c3ccncc3)c(-c3ccc(F)cc3)c21` [Example 20, 2-[5,7-Bis(4-fluorophenyl)-1-methyl-6-(4-pyridyl)pyrrolo[3,2-b]pyridin-2-yl]propan-2-ol], the inhibition at 1 µM is above 50%.

`O=C(NCCO)c1cc2c(-c3ccc(F)cc3)c(-c3ccncc3)c(-c3ccc(F)cc3)nc2o1` [Example 27, 4,6-Bis-(4-fluoro-phenyl)-5-pyridin-4-yl-furo[2,3-b]pyridine-2-carboxylic acid (2-hydroxy-ethyl)-amide] returned an inhibition at 1 µM above 50%. Then `Cc1noc2nc(-c3ccc(F)cc3)c(-c3ccnc(N[C@@H](C)c4ccccc4)n3)cc12` [Example 42, (S)-{4-[6-(4-Fluoro-phenyl)-3-methyl-isoxazolo[5,4-b]pyridin-5-yl]-pyrimidin-2-yl}-(1-phenyl-ethyl)-amine], with above 50%. `Cn1cnc2nc(-c3ccc(F)cc3)c(-c3ccncc3)c(-c3ccc(F)cc3)c21` [Example 10, 5,7-Bis(4-fluorophenyl)-1-methyl-6-(4-pyridyl)imidazo[4,5-b]pyridine]: the inhibition at 1 µM was above 50%. Next, `COC(=O)c1cc2c(-c3ccc(F)cc3)c(-c3ccncc3)c(-c3ccc(F)cc3)nc2o1` [Example 2, Methyl 4,6-bis(4-fluorophenyl)-5-(4-pyridyl)furo[2,3-b]pyridine-2-carboxylate]: above 50%; `Cc1nc2cc(-c3ccnc(N[C@@H](C)c4ccccc4)n3)c(-c3ccc(F)cc3)nc2s1` [Example 56, (S)-{4-[5-(4-Fluoro-phenyl)-2-methyl-thiazolo[5,4-b]pyridin-6-yl]-pyrimidin-2-yl}-(1-phenyl-ethyl)-amine]: above 50%; `COc1ccc(-c2nc3cc[nH]c3cc2-c2ccnc(NCC3CC3)n2)cc1` [Example 46, Cyclopropylmethyl-{4-[5-(4-methoxy-phenyl)-1H-pyrrolo[3,2-b]pyridin-6-yl]-pyrimidin-2-yl}-amine]: above 50%. With `CC(C)(O)c1cc2c(-c3ccc(F)cc3)c(-c3ccncc3)c(-c3ccc(F)cc3)nc2o1` [Example 16, 2-[4,6-Bis-(4-fluorophenyl)-5-(4-pyridyl)furo[2,3-b]pyridin-2-yl]propan-2-ol], the inhibition at 1 µM was above 50%. Then `Cc1nsc2nc(-c3ccc(F)cc3)c(-c3ccnc(NCC4CC4)n3)cc12` [Example 43, Cyclopropylmethyl-{4-[6-(4-fluoro-phenyl)-3-methyl-isothiazolo[5,4-b]pyridin-5-yl]-pyrimidin-2-yl}-amine], with above 50%; and `CC(=O)c1nc2nc(-c3ccc(F)cc3)c(-c3ccncc3)c(-c3ccc(F)cc3)c2n1C` [Example 19, 1-[5,7-Bis(4-fluorophenyl)-1-methyl-6-(4-pyridyl)imidazo[4,5-b]pyridin-2-yl]ethanone], with above 50%. The molecule `COC(=O)c1cc2nc(-c3ccc(F)cc3)c(-c3ccncc3)c(-c3ccc(F)cc3)c2n1C` [Example 3, Methyl 5,7-bis(4-fluorophenyl)-1-methyl-6-(4-pyridyl)pyrrolo[3,2-b]pyridine-2-carboxylate] gave an inhibition at 1 µM above 50%.
